Experimental data taken from US20200054587A1, “METHODS AND MATERIALS FOR REDUCING SCARRING ASSOCIATED WITH ARTHROFIBROSIS OR TENDON INJURY” (Mayo Foundation for Medical Education and Research, priority 2018, published 2020).
Read-outs that look alike come from different tables or passages of the source.

What was measured:
[1] = cited from earlier work
knee arthrofibrosis = experiment: Rabbit knee arthrofibrosis model, passive range of motion; type: in vivo; details: 50 mg in gel injected into the joint capsule during surgery
Method: (§1) All rabbits underwent luxation (hyperextension) and arthrodesis (fixation) of the operative knee. […] After eight weeks, the arthrodesis was reversed. Rabbits were allowed to roam free in individual spaces (1 m^2) for the entire 24 week duration. Angles of passive extension of operative and contralateral, non-operative limbs were measured at 8, 10, 16, and 24 weeks, using a validated dynamic load cell device. Rabbits were sacrificed at 24 weeks and samples of the posterior capsule were taking from the operative and contralateral, non-operative knee. Data from mRNA extraction and qPCR were obtained to analyze expression of alpha-1 collagen (COL1A1, COL2A1 and COL5A1) and alpha smooth muscle actin (ACTA2), all of which are involved in fibrosis.

[2] = test system: adipose tissue-derived mesenchymal stem cells (aMSC); experiment: Live/dead cytotoxicity staining (Calcein AM / Ethidium Homdimer-1); details: after initial exposure, absence of any dead-cell staining, FIG. 1B
[3] = test system: COL1A1, COL2A1 and COL5A1; experiment: qPCR of collagen genes in posterior capsule tissue, rabbit knee arthrofibrosis model; type: in vivo; details: rabbit posterior capsule tissue at 24 weeks, FIG. 3A
Method: as §1

ACTA2 = experiment: qPCR of alpha smooth muscle actin gene in posterior capsule tissue, rabbit knee arthrofibrosis model; type: in vivo; details: rabbit posterior capsule tissue at 24 weeks, FIG. 3B
Method: as §1

flexor tendon injury = experiment: In vivo turkey flexor tendon injury model; details: 50 mg powder applied to repaired tendon, 6 weeks
Source text: Flexor tendon injuries are common and pose a clinical challenge for functional restoration. Postoperative repair rupture and scar formation results in prolonged work disability for patients. […] Twelve male turkeys underwent surgical flexor tendon cut and repair. […] After sacrifice, digits were collected and analyzed for adhesion formation as well as healing at the macrolevel.

SMILES | solubility ([1]; acetone) | solubility ([1]; alcohol) | solubility ([1]; chloroform) | solubility ([1]; ether) | solubility ([1]; glycerin) | solubility ([1]; water) | passive range of motion (ROM), pentamidine vs control rabbits (knee arthrofibrosis; 24 weeks, p=0.0082) | passive range of motion (ROM), pentamidine vs control rabbits (knee arthrofibrosis; eight weeks, p=0.0303) | cytotoxic effect (Ethidium Homdimer-1 staining) [2] | collagen (COL1A1, COL2A1 and COL5A1) expression vs control tissue [3] | ACTA2 gene expression vs control tissue (ACTA2) | post-operative scar formation (gross anatomy) vs control (flexor tendon injury) | adhesion score, 0 (no adhesion) to 8 (very severe) (flexor tendon injury; all six treated turkeys, FIG. 4)
N=C(N)c1ccc(OCCCCCOc2ccc(C(=N)N)cc2)cc1 [Pentamidine isethionate, 4,4-[1,5-pentanediylbis(oxy)]bis-benzenecarboximidamid] | insoluble | soluble | insoluble | insoluble | soluble | soluble | – | – | – | – | – | – | –
N=C(N)c1ccc(OCCCCCOc2ccc(C(=N)N)cc2)cc1 [pentamidine, 4,4′-[pentane-1,5-diylbis(oxy)]dibenzenecarboximid-amide] | – | – | – | – | – | – | statistically significant difference | statistically significant difference | no cytotoxic effect | decreased | decreased | marked reduction | significantly reduced
